Earlier results as cited in US20070197544A1, “ILOPROST IN COMBINATION THERAPIES FOR THE TREATMENT OF PULMONARY ARTERIAL HYPERTENSION” (CoTherix, Inc., priority 2003, published 2007).
Structures can show the parent of a compound that is named as a salt. Where two headings read alike, the source gives them in different places.

What was measured:
[1] = 20 mg, 12-week period
[2] = at least one year of treatment
[3] = oral, at 3 and 6 months
[4] = long-term use of aerosolized iloprost, severe pulmonary hypertension
[5] = versus placebo, severe PAH
[6] = administered by aerosolization, patients with pulmonary hypertension
[7] = continuous infusion, severe pulmonary hypertension
[8] = not given; remark: listed apart in the source
[9] = open pilot study

Compound: COc1ccccc1Oc1c(NS(=O)(=O)c2ccc(C(C)(C)C)cc2)nc(-c2ncccn2)nc1OCCO [bosentan]
- liver toxicity (higher dose): liver toxicity occurred
- six minute walk test (whole group, improvement greater at higher doses): improved

Compound: CN1CC(=O)N2[C@H](c3ccc4c(c3)OCO4)c3[nH]c4ccccc4c3C[C@@H]2C1=O [Cialis, Tadalafil]
- most commonly reported (greater than or equal to 5 percent) treatment-emergent adverse effects [1]: headache, back pain, and upset stomach
- patients who discontinued the study because of adverse events [1]: 5%
- most commonly reported treatment-emergent adverse effects ([2]; 10 mg or 20 mg): headache and upset stomach
- discontinuation rate for any individual adverse event [2]: less than 1%
- patients who discontinued the study due to side effects [2]: Five

Compound: CC#CCC(C)[C@H](O)/C=C/[C@@H]1[C@H]2c3cccc(CCCC(=O)O)c3O[C@H]2C[C@H]1O (mixture of isomers) [Beraprost]
- benefit in PAH [3]: shown a benefit

Compound: CC#CCC(C)[C@H](O)/C=C/[C@@H]1[C@H]2C/C(=C/CCCC(=O)O)C[C@H]2C[C@H]1O (stereo partly shown) [Iloprost]
- clinical improvement [4]: substantial clinical improvement
- exercise capacity [5]: improved exercise capacity

Compound: CCCCC[C@H](O)/C=C/[C@@H]1[C@H]2C/C(=C/CCCC(=O)O)O[C@H]2C[C@H]1O [prostacyclin]
- duration of effects (pulmonary vasodilatation) [6]: 15 min
- mortality [7]: reduce mortality

Compound: CCCc1nc(C)c2c(=O)[nH]c(-c3cc(S(=O)(=O)N4CCN(CC)CC4)ccc3OCC)nn12 [Levitra, vardenafil HCl]
- most commonly reported side effects ([8]; in vivo): headache, flushing, and stuffy or runny nose
- erectile function ([8]; phase III clinical studies): Helped men get and keep an erection sufficient for satisfactory sexual performance

Compound: Cc1cc2c(cc1CC(=O)c1sccc1S(=O)(=O)Nc1onc(C)c1Cl)OCO2 [sitaxsentan]
- decrease in pulmonary vascular resistance [9]: 30%
- six minute walk test [9]: improvement
